Data taken from patent US20230398130A1, “METHODS AND COMPOSITIONS FOR DIFFERENTIATING STEM CELLS” (Massachusetts Institute of Technology, priority 2020, published 2023).

Columns and labels:
ISC-enriched organoids [1] = assay: Primary screen, 384-well 2.5-D organoid differentiation (ENR+CD, 6 days): basal lysozyme secretion (LYZ.NS); type: cell-based, murine; settings: primary screen; for Dose.FC.LYZ.NS: FC vs plate median; for Z.LYZ.NS: standard z score; for SSMD.LYZ.NS: strictly standardized mean difference
Source text: (§1) High-throughput screening.

ISC-enriched organoids [2] = assay: Primary screen, 384-well 2.5-D organoid differentiation (ENR+CD, 6 days, Target Selective Inhibitor Library, vs whole-plate median): ATP (CellTiter-Glo 3D, CTG); settings: primary screen; for Dose.FC.CTG: FC vs plate median; for Z.CTG: standard z score; for SSMD.CTG: strictly standardized mean difference
ISC-enriched organoids [3] = assay: Primary screen, 384-well 2.5-D organoid differentiation (ENR+CD, 6 days): carbachol-induced lysozyme secretion (LYZ.S); type: cell-based, murine; settings: primary screen; for Dose.FC.LYZ.S: FC vs plate median; for Z.LYZ.S: standard z score; for SSMD.LYZ.S: strictly standardized mean difference
Source text: as §1

[4] = 1st of the 4 dose lines of the treatment (dose not given)
[5] = 2nd of the 4 dose lines of the treatment (dose not given)
[6] = 3rd of the 4 dose lines of the treatment (dose not given)
[7] = 4th of the 4 dose lines of the treatment (dose not given)

Row | SMILES | SSMD.LYZ.NS (ISC-enriched organoids [1]; [4]) | SSMD.LYZ.NS (ISC-enriched organoids [1]; [5]) | SSMD.LYZ.NS (ISC-enriched organoids [1]; [6]) | SSMD.LYZ.NS (ISC-enriched organoids [1]; [7]) | Z.CTG (ISC-enriched organoids [2]; Dose 0.08 uM) | Z.CTG (ISC-enriched organoids [2]; Dose 0.40 uM) | Z.CTG (ISC-enriched organoids [2]; Dose 2.00 uM) | Z.CTG (ISC-enriched organoids [2]; Dose 10.00 uM) | SSMD.CTG (ISC-enriched organoids [2]; [4]) | SSMD.CTG (ISC-enriched organoids [2]; [5]) | SSMD.CTG (ISC-enriched organoids [2]; [6]) | SSMD.CTG (ISC-enriched organoids [2]; [7]) | Z.LYZ.S (ISC-enriched organoids [3]; [4]) | Z.LYZ.S (ISC-enriched organoids [3]; [5]) | Z.LYZ.S (ISC-enriched organoids [3]; [6]) | Z.LYZ.S (ISC-enriched organoids [3]; [7]) | SSMD.LYZ.S (ISC-enriched organoids [3]; [4]) | SSMD.LYZ.S (ISC-enriched organoids [3]; [5]) | SSMD.LYZ.S (ISC-enriched organoids [3]; [6]) | SSMD.LYZ.S (ISC-enriched organoids [3]; [7]) | further results
1 | COc1cc(-c2ncn(/C=C\C(=O)OC(C)C)n2)cc(C(F)(F)F)c1 [KPT-185] | −0.049 | 0.872 | −1.718 | −0.298 | 0.277 | 0.248 | −2.377 | −2.041 | 0.296 | 0.270 | −1.033 | −0.723 | −0.096 | 1.420 | −2.085 | −0.989 | −0.092 | 0.978 | −1.455 | −0.431 | Dose.FC.LYZ.NS (ISC-enriched organoids [1]; Dose 0.08 uM): −0.006 log 2 fold change; Z.LYZ.NS (ISC-enriched organoids [1]; Dose 0.08 uM): −0.049; Dose.FC.LYZ.NS (ISC-enriched organoids [1]; Dose 0.40 uM): 0.097 log 2 fold change; Z.LYZ.NS (ISC-enriched organoids [1]; Dose 0.40 uM): 0.846; Dose.FC.LYZ.NS (ISC-enriched organoids [1]; Dose 2.00 uM): −0.209 log 2 fold change; Z.LYZ.NS (ISC-enriched organoids [1]; Dose 2.00 uM): −1.820; Dose.FC.LYZ.NS (ISC-enriched organoids [1]; Dose 10.00 uM): −0.085 log 2 fold change; Z.LYZ.NS (ISC-enriched organoids [1]; Dose 10.00 uM): −0.744; Dose.FC.CTG (ISC-enriched organoids [2]; Dose 0.08 uM): 0.116 log 2 fold change; Dose.FC.CTG (ISC-enriched organoids [2]; Dose 0.40 uM): 0.104 log 2 fold change; Dose.FC.CTG (ISC-enriched organoids [2]; Dose 2.00 uM): −0.995 log 2 fold change; Dose.FC.CTG (ISC-enriched organoids [2]; Dose 10.00 uM): −0.855 log 2 fold change; Dose.FC.LYZ.S (ISC-enriched organoids [3]; Dose 0.08 uM): −0.015 log 2 fold change; Dose.FC.LYZ.S (ISC-enriched organoids [3]; Dose 0.40 uM): 0.220 log 2 fold change; Dose.FC.LYZ.S (ISC-enriched organoids [3]; Dose 2.00 uM): −0.322 log 2 fold change; Dose.FC.LYZ.S (ISC-enriched organoids [3]; Dose 10.00 uM): −0.153 log 2 fold change
2 | O=C(/C=C\n1cnc(-c2cc(C(F)(F)F)cc(C(F)(F)F)c2)n1)N1CC(F)(F)C1 [KPT-276] | 0.486 | 0.742 | −1.426 | −1.384 | 0.399 | −0.104 | −0.986 | −1.680 | 0.494 | −0.146 | −0.772 | −2.520 | 0.860 | 0.958 | −2.111 | −2.335 | 0.806 | 0.771 | −1.399 | −1.417 | Dose.FC.LYZ.NS (ISC-enriched organoids [1]; Dose 0.08 uM): 0.056 log 2 fold change; Z.LYZ.NS (ISC-enriched organoids [1]; Dose 0.08 uM): 0.492; Dose.FC.LYZ.NS (ISC-enriched organoids [1]; Dose 0.40 uM): 0.086 log 2 fold change; Z.LYZ.NS (ISC-enriched organoids [1]; Dose 0.40 uM): 0.746; Dose.FC.LYZ.NS (ISC-enriched organoids [1]; Dose 2.00 uM): −0.224 log 2 fold change; Z.LYZ.NS (ISC-enriched organoids [1]; Dose 2.00 uM): −1.947; Dose.FC.LYZ.NS (ISC-enriched organoids [1]; Dose 10.00 uM): −0.256 log 2 fold change; Z.LYZ.NS (ISC-enriched organoids [1]; Dose 10.00 uM): −2.230; Dose.FC.CTG (ISC-enriched organoids [2]; Dose 0.08 uM): 0.167 log 2 fold change; Dose.FC.CTG (ISC-enriched organoids [2]; Dose 0.40 uM): −0.044 log 2 fold change; Dose.FC.CTG (ISC-enriched organoids [2]; Dose 2.00 uM): −0.413 log 2 fold change; Dose.FC.CTG (ISC-enriched organoids [2]; Dose 10.00 uM): −0.703 log 2 fold change; Dose.FC.LYZ.S (ISC-enriched organoids [3]; Dose 0.08 uM): 0.133 log 2 fold change; Dose.FC.LYZ.S (ISC-enriched organoids [3]; Dose 0.40 uM): 0.148 log 2 fold change; Dose.FC.LYZ.S (ISC-enriched organoids [3]; Dose 2.00 uM): −0.327 log 2 fold change; Dose.FC.LYZ.S (ISC-enriched organoids [3]; Dose 10.00 uM): −0.361 log 2 fold change
3 | C[C@@H]1CN(CC(=O)Nc2ccc3c(c2)Cc2cccc(-c4cc(=O)cc(N5CCOCC5)o4)c2S3)C[C@H](C)O1 [KU-60019] | 0.305 | −0.014 | −0.103 | −0.570 | 0.273 | 0.094 | 0.290 | −1.246 | 0.371 | 0.118 | 0.175 | −0.916 | 1.490 | 0.474 | −0.317 | −1.436 | 0.938 | 0.312 | −0.261 | −0.923 | –
